Assay [1] deals with T1, CYP24 (Homo sapiens, UniProt Q07973).
T1 construct: expressed in transfected cells
T1 sequence (Q07973 36-514): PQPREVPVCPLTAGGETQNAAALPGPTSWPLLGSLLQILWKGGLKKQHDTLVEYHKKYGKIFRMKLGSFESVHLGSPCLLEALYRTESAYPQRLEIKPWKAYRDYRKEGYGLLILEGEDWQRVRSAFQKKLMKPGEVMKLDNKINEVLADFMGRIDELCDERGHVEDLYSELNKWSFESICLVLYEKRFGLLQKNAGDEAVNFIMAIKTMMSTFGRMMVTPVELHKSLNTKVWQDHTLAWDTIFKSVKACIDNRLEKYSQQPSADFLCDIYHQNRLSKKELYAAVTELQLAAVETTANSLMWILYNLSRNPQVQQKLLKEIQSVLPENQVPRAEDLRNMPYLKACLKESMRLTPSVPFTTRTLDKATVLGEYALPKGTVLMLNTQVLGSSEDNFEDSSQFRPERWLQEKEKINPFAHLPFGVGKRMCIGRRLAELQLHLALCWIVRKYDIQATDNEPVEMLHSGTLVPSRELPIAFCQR
In words: CYP24 enzyme assay (stable cell line V79-CYP24 cells). The class given is cell-based. The following applies: [3H-1β]-1α,25(OH)2D3 20 nM, 2 hours. On the procedure: 1. Preparation of Cell Suspension • On the day of the assay, washed the monolayer of V79-CYP24 cells once with 1×PBS buffer and then trypsinize for 5 min at room temperature (approx. 22° C.). Added 1×PBS. Collected cells into tube, centrifuged cells (500×g, 5 min) and resuspended in DMEM+1% BSA media.
2. Cell Plating • Added 150 μl of cell suspension to appropriately labelled wells of a 48-well plate. Incubated plate for 30 minutes at 37° C. in a humidified atmosphere containing 5% CO2 for adherence of cells to wells.
3. Compound Addition • Added 25 μl of inhibitor (10^−6 to 10^−9 M) and then after 10 min added 25 μl of substrate [^3H-1β]-1α,25(OH)2D3 (20 nM) for 2 hours at 37° C. in a humidified atmosphere containing 5% CO2. Both inhibitor and substrate were prepared in DMEM with 1% BSA media in the absence and presence of 100 μM DPPD.
4. Lipid Extraction and Counting • Added 500 μL of methanol to stop the reaction. Transferred to tube. Added 250 μl of dichloromethane and vortexed. Added 250 μl of dichloromethane and 250 μl of saturated KCL and vortexed. Centrifuged at 4000 rpm for 5 min. Triplicate 100 μl aliquots of aqueous fraction were mixed with 600 μl of scintillation fluid and the radioactivity was measured using a scintillation counter. All values were normalized for background. (iii) Results.

The target in assay [2] is T1, CYP24. In words: CYP24 enzyme assay (induced HPK1A-ras cells). The class given is cell-based. The following applies: HPK1A-ras cells induced with 1,25(OH)2D3; [3H]-1,25(OH)2D3 substrate, 2 hour. On the procedure:
1.25(OH)2D3 10^−5 M (Sigma, St. Louis, Mo.);
Preparation of 10^−5 M working solution is as follows:
Dissolve 1 mg of 1,25(OH)2D3 into 480 μl of isopropanol to make 5×10^−3 M stock solution. Store at −70° C. until needed. Aliquot 1 μl of 1.25(OH)2D3 5×10^−3 M stock solution to 499 μl of isopropanol to make 1.25(OH)2D3 10^−5 working solution. Store at −20° C. until needed. […] Induction of HPKIA-ras cells (The day before assay) • When the HPK1A-ras cells were 80-90% confluent, added 1 μL 10^−5 M 1.25(OH)2D3 to 1 mL medium in the plate (final concentration is 10^−8 M). • 2. Preparation of cell suspension • After 18 to 20 hours induction, removed the medium and washed the cell twice with PBS. Then tripsinized the cells from plate, centrifuged (2,000 rpm, 5 min) and suspended cells pellet in DMEM medium+1% BSA. • Counted the cells and adjusted cells density to 250,000/150 μL, added 150 μL cell suspension to each well in 48-well plate (including 3 wells as a no cell control, and 3 well cells without drug or inhibitor as controls). • 3. […] Kept the plate in 37° C. for 10 min. • 4. Preparation of substrate • For each ml required, added 972 μl of DMEM+1% BSA medium, 20 μl of 3H-1,25(OH)2D3, and 8 μl of 100 nM DPPD to a tube and vortexed. • 5. Incubation • Added 25 μL substrate to each well, incubated the plate at 37° C. for 2 hour. • Added 25 μL substrate to counting plate (2 well) as a total count. • 6. Lipid Extraction and Counting • Added 500 μL methanol to each well to stop the reaction, transferred them to tube. • Added 250 μL dichloromethane and vortex. • Added 250 μL dichloromethane and […] saturated KCI, and vortex. • Centrifuged at 4000 rpm for 5 min. • Transferred 100 μL of aqueous phase (upper phase) to counting plastic counting plate. Added 600 μL of scintillation fluid to each well. Counted the plate in scintillation counter. • 7. Calculation Enzyme Activity • CPM of cell control after subtraction of CPM of non-cell control (NCC) was as 100% enzyme activity.
• Dilution of test compounds • Stock 10^−3 M

The next assay relates to SCC-25 cells. In words: [3H]-thymidine proliferation assay with SCC-25 cells. The class given is cell-based. The following applies: together with calcitriol, three days, [3H]-thymidine 6 h. As for the experimental part: 1. Preparation of Cell Suspension • When SCC-25 cells were 70-80% confluent, aspirated media. Washed the cells with 1×PBS. Trypsinized with trypsin-EDTA from the plate, collected cells from the tissue culture flask, centrifuged (500×g, 5 min) and resuspended in media.
2. Cell Plating. • Counted the cells and adjusted the cell density to 10,000/ml. Added 200 μl per well in a 96 well plate. Incubated plate for 24 h at 37° C. in a humidified atmosphere plus 5% CO2. Aspirated used media and replaced with 150 μl per well with media.
3. Compound Addition. • Added 25 μl of 1α,25(OH)2D3 (final concentration 10^−6M, 10^−7 M, 10^−8 M, M, 10^−10 M, 10^−11 M) into each designated well. Added 25 μl of substrate (final concentration 10^−7 M, 5×10^−8 M, 10^−8 M or 10^−9 M) into each designated well. Incubated plates for 3 days at 37° C. in a humidified atmosphere plus 5% CO2.
4. ^3H-Thymidine Incorporation. • Added ^3H-thymidine at 0.02 μCi per well and incubated at 37° C. in a humidified atmosphere plus 5% CO2 for 6 h.
5. Plate Harvesting. • Aspirated all media and washed cells with 1×PBS. Trypsinized cells for 30 min at 37° C. in a humidified atmosphere plus 5% CO2. Harvested cells onto a 96 well filter plate (Millipore) using a Tomtec Cell Harvestor, according to manufacturers instructions.
6. Scintillation Counting. • Added 25 μl of scintillation fluid per well. Counted the plate using a scintillation counter.

For a further assay, the target named is T2, VDR (Homo sapiens, UniProt P11473).
T2 construct: purchased Biomol
T2 sequence (P11473 1-427): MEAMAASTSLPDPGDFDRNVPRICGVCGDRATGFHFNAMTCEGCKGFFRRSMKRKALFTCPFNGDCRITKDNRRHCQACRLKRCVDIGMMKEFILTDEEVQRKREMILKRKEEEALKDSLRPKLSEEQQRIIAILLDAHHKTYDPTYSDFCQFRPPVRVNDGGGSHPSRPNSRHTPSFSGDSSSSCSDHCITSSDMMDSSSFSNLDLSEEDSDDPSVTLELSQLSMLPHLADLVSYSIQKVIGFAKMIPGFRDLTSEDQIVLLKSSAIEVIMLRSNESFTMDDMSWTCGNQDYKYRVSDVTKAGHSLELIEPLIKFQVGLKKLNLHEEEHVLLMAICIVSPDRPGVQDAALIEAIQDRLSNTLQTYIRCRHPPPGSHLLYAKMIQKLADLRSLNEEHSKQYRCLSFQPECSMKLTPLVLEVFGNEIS
In words: VDR binding assay. The following applies: B50: displacement of 50 percent [3H]-1,25(OH)2D3 from human recombinant VDR. On the procedure: 1. VDR 9.4 pmol/μl (human, recombinant, Biomol).
4. TEK300 • Tris-HCI 50 mM • EDTA 1.5 mM • KCI 300 mM Adjust pH to 7.4 (25° C.)
3. Preparation of 1.25(OH)2D3 and test compounds in ethanol
1 μl stock VDR in 2.5 ml TEDK300/Gelatin solution (500 μl/tube), (keep on ice)
• Label tubes according to the following chart, each in triplicate:
• Mixed all tubes via vortex and incubated at room temperature for 1 hour. Added 10 μL of 3H-1,25(OH)2D3 Working Dilution, mixed by vortex and incubated at room temperature for 1 hour 2. Sample processing • Thirty minutes before addition, put Charcoal/Dextran Solution on ice with continuous mixing. Added […] of Charcoal/Dextran Solution to each tube, mixed well and incubated on ice for 30 minutes. Centrifuged @ 2000 rpm for 10 minutes at 4° C. 3. Counting • Pipetted 100 μL of the upper, aqueous phase to a 24 well scintillation counting plate and added 600 μL scintillation fluid per well, covered and mixed well. Counted the plate using a scintillation counter for 5 min/sample. (iv) Calculations: • The amount of 1,25(OH)2D3 to displace 50 percent [^3H]-1,25(OH)2D3 from VDR was calculated as B50 for 1,25(OH)2D3. The VDR binding of other compounds was calculated as B50 relative to a value of 1 for 1,25(OH)2D3.

The target in assay [3] is T1, CYP24. In words: In vitro test of ability to inhibit specifically CYP24 (standard protocol). The following applies: ketoconazole as control standard. The class given is cell-based.

The values that follow come from patent publication US7973024B2, “24-sulfoximine vitamin D3 compounds” (Cyctochroma Inc., priority 2002, dated 2011).

For the compound `C=C1/C(=C\C=C2/CCC[C@]3(C)[C@@H]([C@H](C)CCS(=N)(=O)c4ccccc4)CC[C@@H]23)C[C@@H](O)C[C@@H]1O` (single isomer, unassigned) [I(c)], the IC50 on CYP24 [1] is 20 nM; on CYP24 [2], 33 nM. The “inhibition of proliferation of SCC-25 cells” value in the assay on SCC-25 cells is listed as “act to inhibit the proliferation”.
For the compound `C=C1CC[C@H](O)C/C1=C/C=C1\CCC[C@]2(C)[C@@H]([C@H](C)CCS(=N)(=O)c3ccccc3)CC[C@@H]12` (stereo partly drawn) [I(m), 24-Phenyl Sulfoximine 1-Nor Vitamin-D3], the figures for the IC50 at CYP24 [1] and on VDR were 120 nM and more than 2 µM, respectively. Further, at CYP24 [3], the “selective inhibition of CYP24” value is recorded as “selectively inhibit”.
